Source: patent US12723063B2, “GIPR-agonist compounds” (Eli Lilly and Company, priority 2019, dated 2026)
pKi: −log10 of the molar value. *1 amine or outer side, *2 acyl side, *3 side chain or, on linkers, in order; H or OH if unused. Where a SMILES comes first, the peptide text is derived from it. Side-chain parts run from the residue outwards. [ ]: non-standard residue; d: D form. The star is where a group is joined. C18 diacid = O=C(O)CCCCCCCCCCCCCCCCC(=O)*; αMePhe(2-F) = C[C@](N)(Cc1ccccc1F)C(=O)O; γGlu = O=C(O)[C@H](CCC(=O)[*:2])N[*:1]; AEEA = NCCOCCOCC(=O)O; Aib = CC(C)(N)C(=O)O

Legend:
[1] = target: T1, human GLP-1 receptor (GLP-1R) (Homo sapiens, UniProt P43220); assay: cAMP functional assay (HTRF) in HEK293 cells in presence of 0.1% casein; assay type: cell-based; conditions: HEK293 cells expressing human GLP-1R, geometric mean, read-out: hGLP1R cAMP Rel EC50 nM (SEM, n)
T1 construct: expressed in transfected cells; host or cells: HEK293
T1 sequence (P43220 24-463): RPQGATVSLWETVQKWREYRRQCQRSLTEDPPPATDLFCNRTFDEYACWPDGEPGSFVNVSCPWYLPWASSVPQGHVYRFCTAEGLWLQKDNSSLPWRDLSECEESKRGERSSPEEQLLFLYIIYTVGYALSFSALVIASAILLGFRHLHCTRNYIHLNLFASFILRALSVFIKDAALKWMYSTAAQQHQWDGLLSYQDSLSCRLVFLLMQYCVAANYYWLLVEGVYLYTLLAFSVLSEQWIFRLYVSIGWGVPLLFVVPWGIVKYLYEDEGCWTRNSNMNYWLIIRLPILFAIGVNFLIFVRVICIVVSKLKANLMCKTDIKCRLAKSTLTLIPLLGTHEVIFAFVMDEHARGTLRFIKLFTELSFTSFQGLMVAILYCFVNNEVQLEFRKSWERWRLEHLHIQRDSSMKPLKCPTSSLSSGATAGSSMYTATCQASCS

human GIPR = target: T2, human GIPR (Homo sapiens, UniProt P48546); assay: [125I]-GIP binding, SPA with WGA beads, 0.1% bacitracin; conditions: geometric mean, read-out: hGIPR Ki
T2 construct: expressed in transfected cells; crude membranes
T2 sequence (P48546 22-466): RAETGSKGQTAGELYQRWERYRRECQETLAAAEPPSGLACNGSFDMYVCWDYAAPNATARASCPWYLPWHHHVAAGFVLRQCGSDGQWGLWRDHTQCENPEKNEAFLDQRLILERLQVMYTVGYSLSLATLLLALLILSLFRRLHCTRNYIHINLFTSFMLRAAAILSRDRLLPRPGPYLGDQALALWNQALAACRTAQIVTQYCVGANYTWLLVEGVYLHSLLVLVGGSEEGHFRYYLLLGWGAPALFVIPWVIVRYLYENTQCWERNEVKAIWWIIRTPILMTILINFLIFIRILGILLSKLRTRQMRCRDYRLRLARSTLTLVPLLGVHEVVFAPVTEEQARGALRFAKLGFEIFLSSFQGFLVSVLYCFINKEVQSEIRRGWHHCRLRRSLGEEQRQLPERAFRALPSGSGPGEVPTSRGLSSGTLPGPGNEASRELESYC
In short: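 Ki values are geometric means (SEM, n independent days), derived from four-parameter nonlinear regression of IC50. Membranes came from hGIPR-expressing CHO cells.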

SMILES | EC50 [1] | pKi (human GIPR)
CC[C@H](C)[C@H](NC(=O)[C@H](CO)NC(=O)[C@H](Cc1ccc(O)cc1)NC(=O)[C@H](CC(=O)O)NC(=O)[C@H](CO)NC(=O)[C@@H](NC(=O)[C@H](Cc1ccccc1)NC(=O)[C@@H](NC(=O)CNC(=O)[C@H](CCC(=O)O)NC(=O)[C@@H](C)NC(=O)[C@@H](N)Cc1ccc(O)cc1)[C@@H](C)O)[C@@H](C)CC)C(=O)N[C@@H](CC(C)C)C(=O)N[C@@H](CC(C)C)C(=O)N[C@@H](CC(=O)O)C(=O)N[C@@H](CCCCN)C(=O)N[C@@H](CCCCNC(=O)COCCOCCNC(=O)COCCOCCNC(=O)CC[C@H](NC(=O)CCCCCCCCCCCCCCCCC(=O)O)C(=O)O)C(=O)N[C@@H](C)C(=O)N[C@@H](CCC(N)=O)C(=O)NC(C)(C)C(=O)N[C@@H](CCC(=O)O)C(=O)N[C@@H](Cc1ccccc1)C(=O)N[C@H](C(=O)N[C@@H](CCC(=O)O)C(=O)N[C@@H](Cc1c[nH]c2ccccc12)C(=O)N[C@@H](CC(C)C)C(=O)N[C@@H](CC(C)C)C(=O)N[C@@H](C)C(=O)NCC(=O)NCC(=O)N1CCC[C@H]1C(=O)N[C@@H](CO)C(=O)N[C@@H](CO)C(=O)NCC(=O)N[C@@H](C)C(=O)N1CCC[C@H]1C(=O)N1CCC[C@H]1C(=O)N1CCC[C@H]1C(=O)N[C@@H](CO)C(N)=O)C(C)C [Example 29] (H-Y[dA]EGTFISDYSILLDKK([AEEA-AEEA-γGlu-C18 diacid])AQ[Aib]EFVEWLLAGGPSSGAPPPS-NH2) | > 5000 nM | 10.24
CC[C@H](C)[C@H](NC(=O)[C@H](CO)NC(=O)[C@H](Cc1ccc(O)cc1)NC(=O)[C@H](CC(=O)O)NC(=O)[C@H](CO)NC(=O)[C@@H](NC(=O)[C@](C)(Cc1ccccc1F)NC(=O)[C@@H](NC(=O)CNC(=O)[C@H](CCC(=O)O)NC(=O)[C@H](C)NC(=O)[C@@H](Cc1ccc(O)cc1)NC(C)=O)[C@@H](C)O)[C@@H](C)CC)C(=O)N[C@@H](C)C(=O)N[C@@H](CC(C)C)C(=O)N[C@@H](CC(=O)O)C(=O)N[C@@H](CCCCN)C(=O)N[C@@H](CCCCNC(=O)COCCOCCNC(=O)COCCOCCNC(=O)CC[C@H](NC(=O)CCCCCCCCCCCCCCCCC(=O)O)C(=O)O)C(=O)N[C@@H](Cc1c[nH]cn1)C(=O)N[C@@H](CCC(N)=O)C(=O)NC(C)(C)C(=O)N[C@@H](CCC(=O)O)C(=O)N[C@@H](Cc1ccccc1)C(=O)N[C@H](C(=O)N[C@@H](CC(N)=O)C(=O)N[C@@H](Cc1ccc(O)cc1)C(=O)N[C@@H](CC(C)C)C(=O)N[C@@H](CC(C)C)C(=O)N[C@@H](C)C(=O)NCC(=O)NCC(=O)N1CCC[C@H]1C(=O)N[C@@H](CO)C(=O)N[C@@H](CO)C(=O)NCC(=O)N[C@@H](C)C(=O)N1CCC[C@H]1C(=O)N1CCC[C@H]1C(=O)N1CCC[C@H]1C(=O)N[C@@H](CO)C(N)=O)C(C)C [Example 30] (Ac-[dY]AEGT[αMePhe(2-F)]ISDYSIALDKK([AEEA-AEEA-γGlu-C18 diacid])HQ[Aib]EFVNYLLAGGPSSGAPPPS-NH2) | > 5000 nM | 10.43
